We go through 18 molecules from patent publication US20230019491A1, “PYRIMIDINE TBK/IKKe INHIBITOR COMPOUNDS AND USES THEREOF” (Merck Patent GmbH, priority 2017, published 2023).

Structures can show the parent of a compound that is named as a salt.

One test addresses T1, TBK1 (Homo sapiens, UniProt Q9UHD2).
T1 sequence (Q9UHD2 1-729): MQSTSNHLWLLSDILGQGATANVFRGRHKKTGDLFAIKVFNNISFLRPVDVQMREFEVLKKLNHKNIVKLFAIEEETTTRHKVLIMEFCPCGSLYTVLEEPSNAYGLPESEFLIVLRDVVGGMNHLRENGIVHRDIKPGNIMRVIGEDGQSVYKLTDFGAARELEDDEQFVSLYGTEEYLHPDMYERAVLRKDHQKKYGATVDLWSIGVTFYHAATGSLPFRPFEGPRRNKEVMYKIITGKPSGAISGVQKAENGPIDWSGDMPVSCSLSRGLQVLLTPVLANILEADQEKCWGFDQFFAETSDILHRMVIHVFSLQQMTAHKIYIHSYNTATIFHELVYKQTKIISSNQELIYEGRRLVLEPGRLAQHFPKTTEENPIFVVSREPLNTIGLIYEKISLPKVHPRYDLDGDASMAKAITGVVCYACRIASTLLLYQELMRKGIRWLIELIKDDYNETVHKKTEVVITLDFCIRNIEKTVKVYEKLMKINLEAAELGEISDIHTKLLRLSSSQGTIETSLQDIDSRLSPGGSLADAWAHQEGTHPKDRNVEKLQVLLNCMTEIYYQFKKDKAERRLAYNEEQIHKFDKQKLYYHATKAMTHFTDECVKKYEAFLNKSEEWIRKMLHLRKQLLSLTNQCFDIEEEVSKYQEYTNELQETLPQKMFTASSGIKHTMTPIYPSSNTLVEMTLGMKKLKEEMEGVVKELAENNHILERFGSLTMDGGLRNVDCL
The experiment in a line: TBK biochemical assay. Particulars: 10 point 1:4 dose response, 30 uM top concentration, 90 min at 25° C., LabChip EZ Reader II; read-out: TBK1_IC50. Summed up:
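Read-out was a Caliper LabChip mobility-shift assay, run after a 90-min, 25 °C reaction of TBK1 with substrate and compounds, quenched with stop buffer. Control wells received staurosporine at 10 uM final.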

The next test addresses T2, IKKε (Homo sapiens, UniProt Q14164).
T2 sequence (Q14164 1-716): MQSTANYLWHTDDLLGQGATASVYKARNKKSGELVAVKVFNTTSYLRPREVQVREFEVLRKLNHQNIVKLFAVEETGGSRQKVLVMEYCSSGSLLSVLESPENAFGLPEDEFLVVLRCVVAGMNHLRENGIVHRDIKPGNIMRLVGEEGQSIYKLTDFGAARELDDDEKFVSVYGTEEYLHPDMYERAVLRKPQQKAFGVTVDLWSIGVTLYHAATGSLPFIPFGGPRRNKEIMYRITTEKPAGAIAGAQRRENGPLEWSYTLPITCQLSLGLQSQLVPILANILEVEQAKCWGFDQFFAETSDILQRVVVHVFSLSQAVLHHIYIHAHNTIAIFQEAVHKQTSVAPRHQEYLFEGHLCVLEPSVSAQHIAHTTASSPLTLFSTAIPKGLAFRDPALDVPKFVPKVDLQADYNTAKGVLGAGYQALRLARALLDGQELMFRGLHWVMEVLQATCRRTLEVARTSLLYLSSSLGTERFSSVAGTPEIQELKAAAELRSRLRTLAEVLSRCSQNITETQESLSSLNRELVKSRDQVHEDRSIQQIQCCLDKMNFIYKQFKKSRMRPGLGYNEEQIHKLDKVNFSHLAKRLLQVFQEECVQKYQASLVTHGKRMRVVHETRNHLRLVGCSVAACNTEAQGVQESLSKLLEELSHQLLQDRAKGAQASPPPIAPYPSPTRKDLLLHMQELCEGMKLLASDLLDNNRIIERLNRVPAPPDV
The experiment in a line: IKKε biochemical assay. Particulars: 10 point 1:4 dose response, 30 uM top concentration, 90 min at 25° C., LabChip EZ Reader II; read-out: IKKε_IC50. In short, it runs like this: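 Mobility-shift LabChip read-out followed a 90 min, 25° C. reaction of IKKε with substrate and test compound, with DMSO held at 1% final. Reactions were ended with stop buffer. Wells with 10 uM final staurosporine defined complete inhibition, and DMSO-only wells the uninhibited level.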

Consider `COc1nc(Nc2nccc(-c3ccc(OC4CCN(C(=O)[C@H](O)C(C)C)CC4(F)F)c(C#N)c3)n2)ccc1C1CCN(C2COC2)CC1` (stereo partly drawn) [Example 238, 2-[3,3-Difluoro-1-((R)-2-hydroxy-3-methyl-butyryl)-piperidin-4-yloxy]-5-[2-(2-methoxy-1′-oxetan-3-yl-1′,2′,3′,4′,5′,6′-hexahydro-[3,4′]bipyridinyl-6-ylamino)-pyrimidin-4-yl]-benzonitrile], for which the IC50 at TBK1 and on IKKε was 100 to 1000 nM each time.
As to `COc1nc(Nc2nccc(-c3ccc(O[C@@H]4CCN(C(=O)[C@H](C)O)CC4(F)F)c(C#N)c3)n2)ccc1N1CCN(C2COC2)CC1` [Example 122, 2-[[(4R)-3,3-difluoro-1-[(2S)-2-hydroxypropanoyl]piperidin-4-yl]oxy]-5-[2-([6-methoxy-5-[4-(oxetan-3-yl)piperazin-1-yl]pyridin-2-yl]amino)pyrimidin-4-yl]benzonitrile], the IC50 at TBK1 and at IKKε was less than 100 nM in each case.
Turning to `COc1nc(Nc2nccc(-c3cc(C#N)c(OC4CCOCC4)cn3)n2)ccc1N1CCN(C)CC1` [Example 44, 2-(2-[[6-methoxy-5-(4-methylpiperazin-1-yl)pyridin-2-yl]amino]pyrimidin-4-yl)-5-(oxan-4-yloxy)pyridine-4-carbonitrile hydrochloride], the IC50 was 1000 to 5000 nM at TBK1 and greater than 5000 nM on IKKε.
On to `C[C@H](O)C(=O)N1CCC(Oc2ccc(-c3ccnc(Nc4ccc(N5CCOCC5)cc4)n3)cc2C#N)C(F)(F)C1` (stereo partly drawn) [Example 216, 2-([3,3-difluoro-1-[(2S)-2-hydroxypropanoyl]piperidin-4-yl]oxy)-5-(2-[[4-(morpholin-4-yl)phenyl]amino]pyrimidin-4-yl)benzonitrile], for which the IC50 on TBK1 and at IKKε was less than 100 nM throughout.
As for `COc1nc(Nc2nccc(-c3ccc(OC4CCNCC4(F)F)c(C#N)c3)n2)ccc1N1CCN(C2COC2)CC1` (stereo not drawn) [Example 119], the IC50 at TBK1 and at IKKε was less than 100 nM in each case.
`COc1nc(Nc2nccc(-c3ccc(OC4CCOCC4)c(C#N)c3)n2)ccc1N1C[C@@H](C)N(C)[C@@H](C)C1` [Example 36, 5-[2-([6-methoxy-5-[cis-3,4,5-trimethylpiperazin-1-yl]pyridin-2-yl]amino)pyrimidin-4-yl]-2-(oxan-4-yloxy)benzonitrile]: the IC50 at TBK1 and on IKKε was less than 100 nM each time.
Regarding `COc1nc(Nc2nccc(-c3ccc(OC4CCN(C(=O)C(C)C#N)CC4(F)F)c(C#N)c3)n2)ccc1N1CCN(C2COC2)CC1` (stereo not drawn) [Example 251, 2-[1-(2-Cyano-2-methyl-acetyl)-33-difluoro-piperidin-4-yloxy]-5-{2-[6-methoxy-5-(4-oxetan-3-yl-piperazin-1-yl)-pyridin-2-ylamino]-pyrimidin-4-yl}-benzonitrile], the IC50 at TBK1 and on IKKε was less than 100 nM each time.
`C[C@H](O)C(=O)N1CCC(Oc2ccc(-c3ccnc(Nc4ccc(C5CCN(C6COC6)C5)cc4)n3)cc2C#N)C(F)(F)C1` (stereo partly drawn) [Example 213, 2-([3,3-difluoro-1-[(2S)-2-hydroxypropanoyl]piperidin-4-yl]oxy)-5-[2-([4-[1-(oxetan-3-yl)pyrrolidin-3-yl]phenyl]amino)pyrimidin-4-yl]benzonitrile]: the IC50 on TBK1 and on IKKε was less than 100 nM each time.
Take `N#Cc1cc(-c2ccnc(Nc3ccc(C4CCN(C5COC5)CC4)cc3)n2)ccc1OC1CCNCC1(F)F` (stereo not drawn) [Example 150, 2-(3,3-Difluoro-piperidin-4-yloxy)-5-{2-[4-(1-oxetan-3-yl-piperidin-4-yl)-phenylamino]-pyrimidin-4-yl}-benzonitrile hydrochloride]: the IC50 at TBK1 and at IKKε was less than 100 nM each time.
Regarding `COc1cc(Nc2nccc(-c3ccc(OC4CCN(C(=O)C(C)O)CC4(F)F)c(C#N)c3)n2)ccn1` (stereo in doubt) [Example 327, 2-([3,3-difluoro-1-[(2S)-2-hydroxypropanoyl]piperidin-4-yl]oxy)-5-[2-[(2-methoxypyridin-4-yl)amino]pyrimidin-4-yl]benzonitrile], the IC50 at TBK1 and on IKKε was less than 100 nM each time.
`C[C@H](O)C(=O)N1CC(COc2ccc(-c3ccnc(Nc4ccc(N5CCN(C6COC6)CC5)cc4)n3)cc2C#N)C1` [Example 277, 2-([1-[(2S)-2-hydroxypropanoyl]azetidin-3-yl]methoxy)-5-[2-([4-[4-(oxetan-3-yl)piperazin-1-yl]phenyl]amino)pyrimidin-4-yl]benzonitrile]: the IC50 at TBK1 and on IKKε was less than 100 nM each time.
As to `COc1nc(Nc2nccc(-c3ccc(OC4CCN(C(=O)C(C)F)CC4(F)F)c(C#N)c3)n2)ccc1N1CCN(C2COC2)CC1` (stereo not drawn) [Example 259, 2-[3,3-Difluoro-1-(2-fluoro-propionyl)-piperidin-4-yloxy]-5-{2-[6-methoxy-5-(4-oxetan-3-yl-piperazin-1-yl)-pyridin-2-ylamino]-pyrimidin-4-yl}-benzonitrile], the IC50 on TBK1 and at IKKε was less than 100 nM throughout.
In the case of `COc1nc(Nc2nccc(-c3cc(C#N)c(OC4CCN(C(=O)[C@H](C)O)CC4(F)F)cn3)n2)ccc1N1CCN(C2COC2)CC1` (stereo partly drawn) [Example 303, 5-([33-difluoro-1-[(2S)-2-hydroxypropanoyl]piperidin-4-yl]oxy)-2-[2-([6-methoxy-5-[4-(oxetan-3-yl)piperazin-1-yl]pyridin-2-yl]amino)pyrimidin-4-yl]pyridine-4-carbonitrile], the IC50 lay within 100 to 1000 nM on TBK1 and 1000 to 5000 nM at IKKε.
The corresponding values for `C[C@@H](O)C(=O)N1CCC(Oc2ccc(-c3ccnc(Nc4ccc(N5CCOCC5)cc4)n3)cc2C#N)C(F)(F)C1` (stereo partly drawn) [Example 215, 2-([3,3-difluoro-1-[(2R)-2-hydroxypropanoyl]piperidin-4-yl]oxy)-5-(2-[[4-(morpholin-4-yl)phenyl]amino]pyrimidin-4-yl)benzonitrile] are less than 100 nM and less than 100 nM.
Regarding `C[C@@H](O)C(=O)N1CCC(Oc2ccc(-c3ccnc(Nc4ccc(C5CCN(C6COC6)C5)cc4)n3)cc2C#N)C(F)(F)C1` (stereo partly drawn) [Example 214, 2-([3,3-difluoro-1-[(2R)-2-hydroxypropanoyl]piperidin-4-yl]oxy)-5-[2-([4-[1-(oxetan-3-yl)pyrrolidin-3-yl]phenyl]amino)pyrimidin-4-yl]benzonitrile], the IC50 at TBK1 and at IKKε was less than 100 nM throughout.
Turning to `COc1nc(Nc2nccc(-c3ccc(OC4CCOCC4)c(C#N)c3)n2)ccc1N1CCN(C)CC1` [Example 33, 5-(2-(6-methoxy-5-(4-methylpiperazin-1-yl)pyridin-2-ylamino)pyrimidin-4-yl)-2-(tetrahydro-2H-pyran-4-yloxy)benzonitrile], the IC50 at TBK1 and at IKKε was less than 100 nM throughout.
Take `COc1nc(Nc2nccc(-c3ccc(OC4CCN(C(=O)C5CCO5)CC4(F)F)c(C#N)c3)n2)ccc1N1CCN(C2COC2)CC1` (stereo not drawn) [Example 250, 2-[3,3-Difluoro-1-(oxetane-2-carbonyl)-piperidin-4-yloxy]-5-{2-[6-methoxy-5-(4-oxetan-3-yl-piperazin-1-yl)-pyridin-2-ylamino]-pyrimidin-4-yl}-benzonitrile]: the IC50 on TBK1 and at IKKε was less than 100 nM in each case.
For the molecule `COc1cc(Nc2nccc(-c3ccc(OC4CCN(C(=O)CO)CC4(F)F)c(C#N)c3)n2)ccn1` (stereo not drawn) [Example 326, 2-[[3,3-difluoro-1-(2-hydroxyacetyl)piperidin-4-yl]oxy]-5-[2-[(2-methoxypyridin-4-yl)amino]pyrimidin-4-yl]benzonitrile], the IC50 at TBK1 and on IKKε was less than 100 nM throughout.
